*1 amine or outer side, *2 acyl side, *3 side chain or, on linkers, in order; H or OH if unused. Where a SMILES comes first, the peptide text is derived from it. Side-chain parts run from the residue outwards. [ ]: non-standard residue; d: D form. The star is where a group is joined. γGlu = O=C(O)[C@H](CCC(=O)[*:2])N[*:1]; Palmitoyl = CCCCCCCCCCCCCCCC(=O)*; Nle = CCCC[C@H](N)C(=O)O; AEEA = NCCOCCOCC(=O)O; Aib = CC(C)(N)C(=O)O
Experiments:
RXFP1 = molecular target: T1, RXFP1 (Homo sapiens, UniProt Q9HBX9); assay: OVCAR5 cAMP assay (HTRF), RXFP1 agonist activity; format: cell-based; details: for Emax: OVCAR-5, maximal cAMP relative to H2-relaxin maximum (100%), read-out: EMax, OVCAR 5 cells (cAMP); for EC50: OVCAR5 cells, cAMP HTRF, read-out: EC50 (nM), OVCAR 5 cells (cAMP)
T1 construct: OVCAR5 cells expressing endogenous RXFP1; endogenous in cells; host or cells: OVCAR5 cells
T1 sequence (Q9HBX9 1-757): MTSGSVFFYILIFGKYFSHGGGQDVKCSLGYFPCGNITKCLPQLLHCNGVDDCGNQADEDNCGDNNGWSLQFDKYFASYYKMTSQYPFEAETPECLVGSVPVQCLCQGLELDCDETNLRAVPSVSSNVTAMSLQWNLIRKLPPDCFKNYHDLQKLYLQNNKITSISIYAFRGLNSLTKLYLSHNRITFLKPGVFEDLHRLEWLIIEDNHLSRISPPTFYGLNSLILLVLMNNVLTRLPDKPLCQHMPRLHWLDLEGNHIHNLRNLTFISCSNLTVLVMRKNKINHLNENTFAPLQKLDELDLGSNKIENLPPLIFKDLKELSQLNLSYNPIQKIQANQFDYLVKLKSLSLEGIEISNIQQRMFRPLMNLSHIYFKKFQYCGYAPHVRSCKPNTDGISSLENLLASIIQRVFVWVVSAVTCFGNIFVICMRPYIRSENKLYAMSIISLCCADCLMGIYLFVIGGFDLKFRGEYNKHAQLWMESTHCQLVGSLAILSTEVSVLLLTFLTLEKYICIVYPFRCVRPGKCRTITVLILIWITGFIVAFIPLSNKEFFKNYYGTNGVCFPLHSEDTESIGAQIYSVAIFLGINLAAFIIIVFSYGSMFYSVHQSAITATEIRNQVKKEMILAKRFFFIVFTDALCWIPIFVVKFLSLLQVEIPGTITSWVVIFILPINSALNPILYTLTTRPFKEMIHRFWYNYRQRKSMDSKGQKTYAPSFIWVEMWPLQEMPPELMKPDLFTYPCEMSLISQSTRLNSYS
How it was run: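 OVCAR5 cells (endogenous RXFP1) pretreated 40 min at 37° C with 1 mM IBMX, then exposed to peptides in serum-free medium for 30 min at 37° C. Lysate cAMP read by HTRF; EC50 from variable-slope sigmoidal fit; Emax as % of H2-relaxin maximal cAMP in same run.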

[1] = Stability testing of peptides in human plasma or blood; format: in vitro ADME; details: 37° C.; for Human Plasma stability % remaining T = 0: human plasma or blood, T = 0 (reference), 5 μM
Description: (§1) Prior to the testing of stability in plasma (or blood) of a peptide batch, its purity (HPLC-UV) was determined.
(§2) Rat and Human plasma: anti-coagulant sodium or lithium heparin.
(§3) Rat and Human blood: anti-coagulant sodium or lithium heparin. • Stock solution: • 100 μM solution of study compound in 50 mM Phosphate buffer pH 7.4. • 950 μL plasma (or blood) was pre-incubated for 5 min at 37° C. 50 μL of compound stock solution was added. Final compound concentration=5 μM. Vortex and transfer 1504, plasma (or blood) into an Eppendorf for each time point. The time points […] were carried out in duplicate for each species.
(§4) After incubation 150 μL, plasma (or blood) was extracted with 600 μL, Acetonitrile containing with 1% TFA. Then, vortexed and centrifuged 10 min at 14600 rpm. 200 μL supernatant was dried under N2. The sample was reconstituted in 200 μL of H2O/CH3CN 98/2+0.1% FA+50 ng/ml Labetalol and analyzed using the analytical system used in solubility and stability studies.
(§5) For determination of the amount of the remaining peptide, the peak areas of the target compound at t0 and each time point […] were compared, resulting in “% remaining peptide”, following the equation: % remaining peptide=[(peak area peptide time)×100]/peak area peptide t0. The stability is expressed as “% remaining peptide”.

[2] = Stability testing of peptides in rat plasma or blood; format: in vitro ADME; details: 37° C.; for Rat plasma stability % remaining T = 0: rat plasma or blood, T = 0 (reference), 5 μM
Description: as §1, §2, §3, §4, §5

[3] = Pharmacokinetic (PK) determination after i.v. or s.c. administration to rats; format: in vivo, Sprague Dawley rats; details: Sprague Dawley, Rat PK; for C0 / half-life: iv, 1 mg/kg i.v.; for C0: extrapolated plasma concentration at t=0, read-out: C0; for half-life / Cmax / Tmax / bioavailability: plasma; for half-life: read-out: T½ (converted); for Cmax / Tmax: sc, 3 mg/kg s.c.; for bioavailability: subcutaneous, 3 mg/kg s.c. vs 1 mg/kg i.v., dose-corrected AUC ratio
How it was run: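 Sprague Dawley rats received peptide in PBS at 1 mg/kg i.v. or 3 mg/kg s.c., dose corrected for salts, solvent and purity. Plasma analysed by LC/MS after protein precipitation; non-compartmental PK, BLQ values set to zero, F% as dose-corrected s.c./i.v. AUC ratio.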

[4] = whole blood, human blood, read-out: Human stability in blood % remaining 1 h
[5] = whole blood, human blood, read-out: Human stability in blood % remaining 4 h
[6] = whole blood, rat blood, read-out: Rat stability in blood % remaining 1 h
[7] = whole blood, rat blood, read-out: Rat stability in blood % remaining 4 h
[8] = human plasma, read-out: Human Plasma stability % remaining 1 h
[9] = human plasma, read-out: Human Plasma stability % remaining 4 h
[10] = rat plasma, read-out: Rat plasma stability % remaining 1 h
[11] = rat plasma, read-out: Rat plasma stability % remaining 4 h

Row | Structure (SMILES) | Emax (RXFP1) [%] | Human Plasma stability % remaining T = 0 [1] [%] | remaining at 1 h, 5 µM [1, 4] [%] | remaining at 4 h, 5 µM [1, 5] [%] | Rat plasma stability % remaining T = 0 [2] [%] | remaining at 1 h, 5 µM [2, 6] [%] | remaining at 4 h, 5 µM [2, 7] [%] | C0 [3] [nM] | half-life [3] [h] | Cmax [3] [nM] | Tmax [3] [h] | bioavailability [3] [%] | EC50 (RXFP1) [nM] | remaining at 1 h, 5 µM [1, 8] [%] | remaining at 4 h, 5 µM [1, 9] [%] | remaining at 1 h, 5 µM [2, 10] [%] | remaining at 4 h, 5 µM [2, 11] [%]
1 | CCCCCCCCCCCCCCCC(=O)N[C@@H](CCC(=O)N[C@@H](CCC(=O)N[C@@H](CCC(=O)NCCOCCOCC(=O)NCCOCCOCC(=O)NCCOCCOCC(=O)NCCCC[C@H](NC(=O)[C@H](CCCCNC(C)=O)NC(=O)[C@H](CCCCN)NC(=O)[C@H](CCCNC(=N)N)NC(=O)C(C)(C)NC(=O)[C@H](CO)NC(=O)[C@H](Cc1c[nH]c2ccccc12)NC(=O)[C@@H](NC(=O)[C@H](CO)NC(=O)[C@H](CCCC)NC(=O)CNC(=O)[C@H](CCC(=O)O)NC(=O)C(C)(C)NC(=O)C(C)(C)NC(=O)[C@@H](NC(=O)[C@H](CCCCNC(C)=O)NC(=O)[C@H](C)NC(=O)[C@H](CCCNC(=N)N)NC(=O)[C@@H](NC(=O)[C@H](CCCCN)NC(=O)[C@H](CCC(=O)O)NC(=O)[C@H](CCCNC(=N)N)NC(=O)CNC(=O)[C@H](CCC(=O)O)NC(=O)[C@H](CC(C)C)NC(C)=O)C(C)C)[C@@H](C)CC)[C@@H](C)O)C(N)=O)C(=O)O)C(=O)O)C(=O)O [compound 63] (Ac-LEGREKVRAK(Ac)I[Aib][Aib]EG[Nle]STWS[Aib]RKK(Ac)K([AEEA-AEEA-AEEA-γGlu-γGlu-γGlu-Palmitoyl])-NH2) | 80 | 100 | 93 | 87 | 100 | 95 | 79 | 6020 | 5.72 | 2400 | 10 | 47 | – | – | – | – | –
2 | CCCCCCCCCCCCCCCC(=O)N[C@@H](CCC(=O)N[C@@H](CCC(=O)N[C@@H](CCC(=O)NCCCC[C@H](NC(=O)[C@H](CCCCN)NC(=O)[C@H](CCCNC(=N)N)NC(=O)C(C)(C)NC(=O)[C@H](CO)NC(=O)[C@H](Cc1c[nH]c2ccccc12)NC(=O)[C@@H](NC(=O)[C@H](CO)NC(=O)[C@H](CCSC)NC(=O)CNC(=O)[C@H](CCC(=O)O)NC(=O)C(C)(C)NC(=O)C(C)(C)NC(=O)[C@@H](NC(=O)[C@H](CCC(N)=O)NC(=O)[C@H](C)NC(=O)[C@H](CCCNC(=N)N)NC(=O)[C@@H](NC(=O)[C@H](CCCCN)NC(=O)[C@H](CCC(=O)O)NC(=O)[C@H](CCCNC(=N)N)NC(=O)CNC(=O)[C@H](CCC(=O)O)NC(=O)[C@H](CC(C)C)NC(C)=O)C(C)C)[C@@H](C)CC)[C@@H](C)O)C(N)=O)C(=O)O)C(=O)O)C(=O)O [compound 7] (Ac-LEGREKVRAQI[Aib][Aib]EGMSTWS[Aib]RKK([γGlu-γGlu-γGlu-Palmitoyl])-NH2) | 87 | 100 | 110 | 91 | 100 | 110 | 93 | 4770 | 4.3 | 1700 | 6 | 53 | 17.6 | – | – | – | –
3 | CCCCCCCCCCCCCCCC(=O)N[C@@H](CCC(=O)NCCCC[C@H](NC(=O)CC[C@H](NC(=O)CC[C@H](NC(=O)CC[C@H](NC(=O)COCCOCCNC(=O)COCCOCCNC(=O)COCCOCCNC(=O)[C@H](CCCCN)NC(=O)[C@H](CCCCN)NC(=O)[C@H](CCCCN)NC(=O)[C@H](CCCNC(=N)N)NC(=O)C(C)(C)NC(=O)[C@H](CO)NC(=O)[C@H](Cc1c[nH]c2ccccc12)NC(=O)[C@@H](NC(=O)[C@H](CO)NC(=O)[C@H](CCCC)NC(=O)CNC(=O)[C@H](CCC(=O)O)NC(=O)C(C)(C)NC(=O)C(C)(C)NC(=O)[C@@H](NC(=O)[C@H](CCC(N)=O)NC(=O)[C@H](C)NC(=O)[C@H](CCCNC(=N)N)NC(=O)[C@@H](NC(=O)[C@H](CCCCN)NC(=O)[C@H](CCC(=O)O)NC(=O)[C@H](CCCNC(=N)N)NC(=O)CNC(=O)[C@H](CCC(=O)O)NC(=O)[C@H](CC(C)C)NC(C)=O)C(C)C)[C@@H](C)CC)[C@@H](C)O)C(=O)O)C(=O)O)C(=O)O)C(N)=O)C(=O)O [compound 107] (Ac-LEGREKVRAQI[Aib][Aib]EG[Nle]STWS[Aib]RKKK[AEEA][AEEA][AEEA][γGlu][γGlu][γGlu]K([γGlu-Palmitoyl])-NH2) | 85 | 100 | – | – | 100 | – | – | 2600 | 2.5 | 1600 | 8 | 27 | 0.63 | 98 | 106 | 93 | 110
4 | CCCCCCCCCCCCCCCC(=O)N[C@@H](CCC(=O)NCCCC[C@H](NC(=O)CC[C@H](NC(=O)CC[C@H](NC(=O)CC[C@H](NC(=O)COCCOCCNC(=O)COCCOCCNC(=O)COCCOCCNC(=O)[C@H](CCCCN)NC(=O)[C@H](CCCCN)NC(=O)[C@H](CCCNC(=N)N)NC(=O)C(C)(C)NC(=O)[C@H](CO)NC(=O)[C@H](Cc1c[nH]c2ccccc12)NC(=O)[C@@H](NC(=O)[C@H](CO)NC(=O)[C@H](CCCC)NC(=O)CNC(=O)[C@H](CCC(=O)O)NC(=O)C(C)(C)NC(=O)C(C)(C)NC(=O)[C@@H](NC(=O)[C@H](CCC(N)=O)NC(=O)[C@H](C)NC(=O)[C@H](CCCNC(=N)N)NC(=O)[C@@H](NC(=O)[C@H](CCCCN)NC(=O)[C@H](CCC(=O)O)NC(=O)[C@H](CCCNC(=N)N)NC(=O)CNC(=O)[C@H](CCC(=O)O)NC(=O)[C@H](CC(C)C)NC(C)=O)C(C)C)[C@@H](C)CC)[C@@H](C)O)C(=O)O)C(=O)O)C(=O)O)C(N)=O)C(=O)O [compound 110] (Ac-LEGREKVRAQI[Aib][Aib]EG[Nle]STWS[Aib]RKK[AEEA][AEEA][AEEA][γGlu][γGlu][γGlu]K([γGlu-Palmitoyl])-NH2) | 80 | 100 | – | – | 100 | – | – | – | – | – | – | – | 0.17 | 101 | 114 | 96 | 98

Reference: patent US10988523B2, “Modified lipidated Relaxin B chain peptides and their therapeutic use” (Sanofi, priority 2018, dated 2021)
